Measured values published in patent EP1332762A1, “Method of treating hyperprolactinemia and prolactinomas” (Cedars-Sinai Medical Center, priority 1997, dated 1998).
Positions of bridges follow the written chain, without caps; N, C: chain ends. Non-standard residues stand in square brackets, D forms with d. Residues, ends and D or L forms follow the SMILES beside them.

How the values were obtained:
[1] = system: Cells derived from six prolactin-secreting pituitary adenomas; assay: Reduction of prolactin secretion from cultured prolactinoma cells (PRL by immunoradiometric assay); type: cell-based, human; conditions: for effect on prolactin release: adenomatous cell cultures of tumor 1; for effect on prolactin release / suppressed prolactin release: 10-100 nM; for effect on prolactin release / suppressed prolactin secretion / suppressed prolactin release: 3 hours; for effect on prolactin release / response of prolactin secretion / effect on prolactin production: result in words; for suppressed prolactin secretion: cell cultures from tumor 1; for response of prolactin secretion: cells of the four large male tumors (tumors 1-4); for suppressed prolactin release / effect on prolactin production: large tumor 4 cell cultures
hSSTR-2 = hSSTR-2 (Homo sapiens, UniProt P30874); assay: Somatostatin receptor binding assay ([125I-Tyr11]somatostatin-14, membranes of transfected CHO-K1 cells); conditions: radioligand 0.05 nM, 30 min at 30 °C
Chain of hSSTR-2 (P30874 whole entry): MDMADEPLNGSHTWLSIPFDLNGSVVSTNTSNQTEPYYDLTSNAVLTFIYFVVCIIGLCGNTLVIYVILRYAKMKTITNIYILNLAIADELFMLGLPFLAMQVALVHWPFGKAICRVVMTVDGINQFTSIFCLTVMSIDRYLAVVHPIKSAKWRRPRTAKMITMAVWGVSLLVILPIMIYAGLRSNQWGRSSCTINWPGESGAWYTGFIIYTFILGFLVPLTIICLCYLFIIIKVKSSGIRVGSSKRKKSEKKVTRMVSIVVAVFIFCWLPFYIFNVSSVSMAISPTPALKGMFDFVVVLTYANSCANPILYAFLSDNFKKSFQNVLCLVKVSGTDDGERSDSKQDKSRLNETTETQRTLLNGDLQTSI

hSSTR-4 = hSSTR-4 (Homo sapiens, UniProt P31391); assay: as above; conditions: radioligand 0.05 nM, 30 min at 30 °C
Chain of hSSTR-4 (P31391 whole entry): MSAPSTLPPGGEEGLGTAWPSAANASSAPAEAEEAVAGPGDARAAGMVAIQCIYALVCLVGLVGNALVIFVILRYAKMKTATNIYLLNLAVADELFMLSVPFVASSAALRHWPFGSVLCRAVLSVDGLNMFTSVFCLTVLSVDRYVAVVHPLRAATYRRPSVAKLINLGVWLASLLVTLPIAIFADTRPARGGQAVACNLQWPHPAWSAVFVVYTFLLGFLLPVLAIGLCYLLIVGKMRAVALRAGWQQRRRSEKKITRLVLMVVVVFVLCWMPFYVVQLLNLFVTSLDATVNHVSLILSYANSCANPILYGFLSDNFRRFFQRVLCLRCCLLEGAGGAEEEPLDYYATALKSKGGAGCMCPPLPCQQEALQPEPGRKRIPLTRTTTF

hSSTR-5 = hSSTR-5 (Homo sapiens, UniProt P35346); assay: as above; conditions: radioligand 0.05 nM, 30 min at 30 °C
Chain of hSSTR-5 (P35346 whole entry): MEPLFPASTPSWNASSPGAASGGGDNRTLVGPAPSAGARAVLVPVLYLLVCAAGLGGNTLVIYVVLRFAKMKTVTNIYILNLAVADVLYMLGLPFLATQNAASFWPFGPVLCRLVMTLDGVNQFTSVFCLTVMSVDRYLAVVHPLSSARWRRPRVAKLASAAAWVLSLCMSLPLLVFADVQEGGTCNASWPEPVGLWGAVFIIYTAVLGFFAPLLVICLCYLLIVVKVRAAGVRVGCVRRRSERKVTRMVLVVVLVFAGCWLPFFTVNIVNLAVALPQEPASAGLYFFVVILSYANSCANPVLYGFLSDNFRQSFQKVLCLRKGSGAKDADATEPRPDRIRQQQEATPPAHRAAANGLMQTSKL

hSSTR-3 = hSSTR-3 (Homo sapiens, UniProt P32745); assay: as above; conditions: radioligand 0.05 nM, 30 min at 30 °C
Chain of hSSTR-3 (P32745 whole entry): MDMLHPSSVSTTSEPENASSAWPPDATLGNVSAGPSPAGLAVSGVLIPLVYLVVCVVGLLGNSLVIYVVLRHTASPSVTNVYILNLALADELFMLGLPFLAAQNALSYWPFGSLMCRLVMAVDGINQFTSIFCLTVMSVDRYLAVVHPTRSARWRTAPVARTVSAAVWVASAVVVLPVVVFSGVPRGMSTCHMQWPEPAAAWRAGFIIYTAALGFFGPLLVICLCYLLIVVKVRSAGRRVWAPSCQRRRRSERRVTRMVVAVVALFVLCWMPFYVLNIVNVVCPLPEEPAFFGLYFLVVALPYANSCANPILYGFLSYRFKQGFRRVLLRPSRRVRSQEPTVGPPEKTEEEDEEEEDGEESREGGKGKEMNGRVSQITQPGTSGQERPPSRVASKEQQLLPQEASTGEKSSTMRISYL

hSSTR-1 = hSSTR-1 (Homo sapiens, UniProt P30872); assay: as above; conditions: radioligand 0.05 nM, 30 min at 30 °C
Chain of hSSTR-1 (P30872 whole entry): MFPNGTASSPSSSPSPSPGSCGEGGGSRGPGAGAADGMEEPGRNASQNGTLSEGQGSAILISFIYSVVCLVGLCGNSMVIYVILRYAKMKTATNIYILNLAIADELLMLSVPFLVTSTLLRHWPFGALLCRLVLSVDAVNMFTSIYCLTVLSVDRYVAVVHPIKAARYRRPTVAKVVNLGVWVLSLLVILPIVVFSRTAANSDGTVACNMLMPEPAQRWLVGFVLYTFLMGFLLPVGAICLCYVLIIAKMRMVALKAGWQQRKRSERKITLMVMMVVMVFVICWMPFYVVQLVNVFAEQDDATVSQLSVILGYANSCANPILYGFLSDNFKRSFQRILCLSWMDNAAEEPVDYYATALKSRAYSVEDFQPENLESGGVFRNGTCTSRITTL

## CC[C@@H]1NC(=O)[C@H](CCCCN)NC(=O)[C@@H](Cc2c[nH]c3ccccc23)NC(=O)[C@H](Cc2ccc(O)cc2)NC(=O)[C@@H](NC(=O)[C@H](N)Cc2ccccc2)CSSC[C@@H](C(=O)N[C@H](C(N)=O)[C@@H](C)O)NC1=O [BIM-23023]
[1]
  effect on prolactin release: did not affect prolactin release

## C[C@@H](O)[C@@H]1NC(=O)[C@H](CCCCN)NC(=O)[C@@H](Cc2c[nH]c3ccccc23)NC(=O)[C@H](Cc2ccccc2)NC(=O)[C@H](Cc2ccccc2)NC(=O)[C@@H](N)CSSC[C@@H](C(N)=O)NC(=O)[C@H](Cc2ccccc2)NC1=O [BIM-23268] (H-CFF[dW]KTFC-NH2; disulfide 1-8)
[1]; 10 nM, p<0.05
  suppressed prolactin secretion: 36%
[1]
  response of prolactin secretion: suppression of prolactin secretion
[1]; large tumor 3 cell cultures, 10 nM and 100 nM, dose dependent, p<0.05
  suppressed prolactin: up to 29%
[1]; p<0.05
  suppressed prolactin release: more than 30%
[1]; tumor 2 cell cultures, 10 nM, versus controls, p<0.0005
  Prolactin release inhibited: 38%

## C[C@@H](O)[C@H](NC(=O)[C@H](Cc1ccccc1)NC(=O)[C@@H](NC(=O)[C@H](CCCCN)NC(=O)[C@@H](Cc1c[nH]c2ccccc12)NC(=O)[C@H](Cc1ccccc1)NC(=O)[C@H](Cc1ccccc1)NC(=O)[C@H](N)Cc1ccccc1)[C@@H](C)O)C(N)=O [BIM-23052, H-D-Phe-Phe-Phe-D-Trp-Lys-Thr-Phe-Thr-NH2] (H-[dF]FF[dW]KTFT-NH2)
hSSTR-2
  Ki: 12 nM
hSSTR-4
  Ki: 127 nM
hSSTR-5
  Ki: 1.22 nM
hSSTR-3
  Ki: 5.6 nM
[1]; 10 nM, p<0.05
  suppressed prolactin secretion: 33%
[1]
  response of prolactin secretion: suppression of prolactin secretion
[1]; p<0.05
  suppressed prolactin release: more than 30%
hSSTR-1
  Ki: 97.6 nM

## CC[C@@H]1NC(=O)[C@H](CCCCN)NC(=O)[C@@H](Cc2c[nH]c3ccccc23)NC(=O)[C@H](Cc2ccc(O)cc2)NC(=O)[C@@H](NC(=O)[C@@H](Cc2ccccc2)NS(=O)(=O)CCN2CCN(CCO)CC2)CSSC[C@@H](C(=O)N[C@H](C(N)=O)[C@@H](C)O)NC1=O [BIM-23197]
[1]
  effect on prolactin release: did not affect prolactin release
  response of prolactin secretion: failed to respond
  effect on prolactin production: modestly stimulated prolactin production

## C[C@@H](O)[C@@H]1NC(=O)[C@H](CCCCN)NC(=O)[C@@H](Cc2c[nH]c3ccccc23)NC(=O)[C@H](Cc2ccccc2)NC(=O)[C@@H](NC(=O)[C@H](N)Cc2ccccc2)CSSC[C@@H](C(=O)N[C@H](CO)[C@@H](C)O)NC1=O [Octreotide]
[1]
  response of prolactin secretion: failed to respond

## CC(C)[C@@H]1NC(=O)[C@H](CCCCN)NC(=O)[C@@H](Cc2c[nH]c3ccccc23)NC(=O)[C@H](Cc2ccc(O)cc2)NC(=O)[C@@H](NC(=O)[C@H](N)Cc2ccc3ccccc3c2)CSSC[C@@H](C(=O)N[C@H](C(N)=O)[C@@H](C)O)NC1=O [Lanreotide]
hSSTR-2
  Ki: 0.75 nM
[1]
  effect on prolactin release: did not affect prolactin release
  response of prolactin secretion: failed to respond

## CC[C@@H]1NC(=O)[C@H](CCCCN)NC(=O)[C@@H](Cc2c[nH]c3ccccc23)NC(=O)[C@H](Cc2ccc(O)cc2)NC(=O)[C@@H](NC(=O)[C@@H](Cc2ccccc2)NC(=O)CN2CCN(CCO)CC2)CSSC[C@@H](C(=O)N[C@H](C(N)=O)[C@@H](C)O)NC1=O [BIM-23190]
[1]
  effect on prolactin release: did not affect prolactin release
  response of prolactin secretion: failed to respond
  effect on prolactin production: modestly stimulated prolactin production
